US20230257396A1, “MACROCYCLES AND THEIR USE” (BLOSSOMHILL THERAPEUTICS, INC., priority 2020, published 2023)

Legend:
Experiment in all cases: KINOMEscan kinase binding assay (Eurofins/DiscoveRx), % Ctrl
Conditions in all cases: 1 μM
kinases [1] = target: T1, kinases (Homo sapiens, UniProt P00519, Q252H)
T1 construct: purchased Eurofins/DiscoveRx; host or cells: E. coli BL21-derived host (T7 phage display) for most kinases; HEK-293 for the rest
In short: (§1)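 Read-out is qPCR of kinase eluted from ligand-coated streptavidin beads after 1 h room-temperature competition with test compound. Values are % Ctrl at the tested concentration, lower meaning tighter binding.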

kinases [2] = target: T2, kinases (Homo sapiens, UniProt P07949)
T2 construct: purchased Eurofins/DiscoveRx; host or cells: E. coli BL21-derived host (T7 phage display) for most kinases; HEK-293 for the rest
In short: as §1

kinases [3] = target: T3, kinases (Homo sapiens, UniProt P00519)
T3 construct: purchased Eurofins/DiscoveRx; host or cells: E. coli BL21-derived host (T7 phage display) for most kinases; HEK-293 for the rest
In short: as §1

kinases [4] = target: T4, kinases (Homo sapiens, UniProt P36888, D835V)
T4 construct: purchased Eurofins/DiscoveRx; host or cells: E. coli BL21-derived host (T7 phage display) for most kinases; HEK-293 for the rest
T4 sequence (P36888 27-993 D835V): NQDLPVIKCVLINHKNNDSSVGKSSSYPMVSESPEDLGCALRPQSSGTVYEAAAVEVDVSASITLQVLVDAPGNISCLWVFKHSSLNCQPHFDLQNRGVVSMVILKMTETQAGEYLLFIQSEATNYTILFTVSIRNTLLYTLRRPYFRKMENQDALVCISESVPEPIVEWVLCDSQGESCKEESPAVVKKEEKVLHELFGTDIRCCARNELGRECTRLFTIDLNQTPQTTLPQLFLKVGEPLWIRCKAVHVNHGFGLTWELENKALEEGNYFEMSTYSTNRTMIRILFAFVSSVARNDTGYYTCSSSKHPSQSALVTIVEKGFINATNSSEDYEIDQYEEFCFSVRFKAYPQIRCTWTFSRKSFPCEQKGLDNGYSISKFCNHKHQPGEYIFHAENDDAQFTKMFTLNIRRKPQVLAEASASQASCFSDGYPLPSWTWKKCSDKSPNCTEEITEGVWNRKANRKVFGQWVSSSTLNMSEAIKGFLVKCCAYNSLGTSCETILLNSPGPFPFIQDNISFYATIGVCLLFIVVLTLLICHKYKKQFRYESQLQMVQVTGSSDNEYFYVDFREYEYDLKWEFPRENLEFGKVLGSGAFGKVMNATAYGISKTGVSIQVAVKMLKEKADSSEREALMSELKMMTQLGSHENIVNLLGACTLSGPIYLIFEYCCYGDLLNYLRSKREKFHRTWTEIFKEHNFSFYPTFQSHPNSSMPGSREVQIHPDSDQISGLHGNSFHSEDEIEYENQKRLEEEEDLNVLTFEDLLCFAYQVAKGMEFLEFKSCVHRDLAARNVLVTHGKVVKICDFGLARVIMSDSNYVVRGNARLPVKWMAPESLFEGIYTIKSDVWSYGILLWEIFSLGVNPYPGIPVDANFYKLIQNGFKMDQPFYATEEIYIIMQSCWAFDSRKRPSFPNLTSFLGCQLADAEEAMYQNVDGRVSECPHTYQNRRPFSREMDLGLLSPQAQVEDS
In short: as §1

kinases [5] = target: T5, kinases (Homo sapiens, UniProt P00533, G719C)
T5 construct: purchased Eurofins/DiscoveRx; host or cells: E. coli BL21-derived host (T7 phage display) for most kinases; HEK-293 for the rest
In short: as §1

kinases [6] = target: T6, kinases (Homo sapiens, UniProt P00533, L858R/T790M)
T6 construct: purchased Eurofins/DiscoveRx; host or cells: E. coli BL21-derived host (T7 phage display) for most kinases; HEK-293 for the rest
In short: as §1

kinases [7] = target: T7, kinases (Homo sapiens, UniProt P10721, V559D/V654A)
T7 construct: purchased Eurofins/DiscoveRx; host or cells: E. coli BL21-derived host (T7 phage display) for most kinases; HEK-293 for the rest
In short: as §1

kinases [8] = target: T8, kinases (Homo sapiens, UniProt P10721, D816V)
T8 construct: purchased Eurofins/DiscoveRx; host or cells: E. coli BL21-derived host (T7 phage display) for most kinases; HEK-293 for the rest
In short: as §1

kinases [9] = target: T9, kinases (Homo sapiens, UniProt P00519, F317I)
T9 construct: purchased Eurofins/DiscoveRx; host or cells: E. coli BL21-derived host (T7 phage display) for most kinases; HEK-293 for the rest
In short: as §1

kinases [10] = target: T10, kinases (Homo sapiens, UniProt P00533, L858R)
T10 construct: purchased Eurofins/DiscoveRx; host or cells: E. coli BL21-derived host (T7 phage display) for most kinases; HEK-293 for the rest
In short: as §1

kinases [11] = target: T11, kinases (Homo sapiens, UniProt P00533, DEL746-750)
T11 construct: purchased Eurofins/DiscoveRx; host or cells: E. coli BL21-derived host (T7 phage display) for most kinases; HEK-293 for the rest
In short: as §1

T2 sequence (P07949 29-1114): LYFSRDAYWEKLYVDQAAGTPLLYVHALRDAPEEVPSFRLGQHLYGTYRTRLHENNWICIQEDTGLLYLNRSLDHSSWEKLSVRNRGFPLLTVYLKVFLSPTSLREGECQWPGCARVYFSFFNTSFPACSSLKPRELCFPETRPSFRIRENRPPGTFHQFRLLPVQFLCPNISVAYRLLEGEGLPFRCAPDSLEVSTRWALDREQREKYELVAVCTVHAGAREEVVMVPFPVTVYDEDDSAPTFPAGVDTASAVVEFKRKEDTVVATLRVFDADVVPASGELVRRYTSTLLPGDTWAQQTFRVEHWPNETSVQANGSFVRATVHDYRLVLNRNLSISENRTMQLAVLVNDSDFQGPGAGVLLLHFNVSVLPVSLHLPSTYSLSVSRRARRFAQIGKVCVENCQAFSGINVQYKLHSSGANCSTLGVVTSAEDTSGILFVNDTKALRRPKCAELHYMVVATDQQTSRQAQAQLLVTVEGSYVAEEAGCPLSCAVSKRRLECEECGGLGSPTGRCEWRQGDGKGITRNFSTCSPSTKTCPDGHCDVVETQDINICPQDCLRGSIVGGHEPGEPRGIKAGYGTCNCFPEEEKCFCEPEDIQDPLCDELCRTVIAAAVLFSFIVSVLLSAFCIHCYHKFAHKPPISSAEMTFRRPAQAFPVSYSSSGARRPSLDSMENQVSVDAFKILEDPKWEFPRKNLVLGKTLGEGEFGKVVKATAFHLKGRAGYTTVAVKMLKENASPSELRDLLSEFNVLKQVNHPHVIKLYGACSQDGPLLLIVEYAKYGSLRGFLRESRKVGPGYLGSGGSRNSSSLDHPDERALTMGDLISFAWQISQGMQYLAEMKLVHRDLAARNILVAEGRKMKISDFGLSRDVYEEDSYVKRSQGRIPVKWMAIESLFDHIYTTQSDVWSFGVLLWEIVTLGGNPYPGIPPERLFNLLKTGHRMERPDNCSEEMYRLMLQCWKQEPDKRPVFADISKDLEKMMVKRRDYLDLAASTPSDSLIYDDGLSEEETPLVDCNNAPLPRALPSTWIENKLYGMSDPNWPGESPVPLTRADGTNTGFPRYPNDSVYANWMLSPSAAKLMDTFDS
T8 sequence (P10721 26-976 D816V): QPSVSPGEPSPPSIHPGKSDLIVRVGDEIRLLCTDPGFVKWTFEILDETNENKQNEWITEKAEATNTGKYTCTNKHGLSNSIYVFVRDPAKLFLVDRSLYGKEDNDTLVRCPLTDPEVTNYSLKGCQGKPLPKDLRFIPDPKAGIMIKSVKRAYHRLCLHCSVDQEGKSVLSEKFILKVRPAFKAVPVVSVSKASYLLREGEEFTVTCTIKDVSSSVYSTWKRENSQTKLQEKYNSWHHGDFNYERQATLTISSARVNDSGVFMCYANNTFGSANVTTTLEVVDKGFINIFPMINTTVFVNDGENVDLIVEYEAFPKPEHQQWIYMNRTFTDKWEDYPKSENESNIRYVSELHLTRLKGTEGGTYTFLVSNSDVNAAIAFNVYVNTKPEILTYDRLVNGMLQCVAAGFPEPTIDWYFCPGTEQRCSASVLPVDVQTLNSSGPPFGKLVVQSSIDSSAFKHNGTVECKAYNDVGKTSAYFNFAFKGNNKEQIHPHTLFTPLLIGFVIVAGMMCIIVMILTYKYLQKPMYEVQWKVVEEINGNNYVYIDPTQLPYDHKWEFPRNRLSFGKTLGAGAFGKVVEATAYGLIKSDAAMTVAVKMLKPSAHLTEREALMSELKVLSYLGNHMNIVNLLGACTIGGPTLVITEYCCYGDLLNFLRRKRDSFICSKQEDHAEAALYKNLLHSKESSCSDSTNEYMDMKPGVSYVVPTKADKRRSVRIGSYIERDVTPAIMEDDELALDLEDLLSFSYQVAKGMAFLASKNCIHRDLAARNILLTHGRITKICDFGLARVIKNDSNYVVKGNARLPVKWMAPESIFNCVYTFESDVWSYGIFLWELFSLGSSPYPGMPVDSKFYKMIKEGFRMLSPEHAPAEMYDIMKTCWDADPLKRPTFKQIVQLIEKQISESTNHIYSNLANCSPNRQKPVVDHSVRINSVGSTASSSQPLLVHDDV
T7 sequence (P10721 26-976 V559D/V654A): as the sequence (P10721 26-976 D816V) above, with V534D, V629A, V791D counted along it

% Ctrl, ABL1(Q252H)-nonphosphorylated (kinases [1]; ABL1(Q252H)-nonphosphorylated) | % Ctrl, ABL1(Q252H)-phosphorylated (kinases [1]; ABL1(Q252H)-phosphorylated) | % Ctrl, RET (kinases [2]; RET) | % Ctrl, ABL1-nonphosphorylated (kinases [3]; ABL1-nonphosphorylated) | % Ctrl, ABL1-phosphorylated (kinases [3]; ABL1-phosphorylated) | % Ctrl, FLT3(D835V) (kinases [4]; FLT3(D835V)) | % Ctrl, EGFR(G719C) (kinases [5]; EGFR(G719C)) | % Ctrl, EGFR(L858R, T790M) (kinases [6]; EGFR(L858R, T790M)) | % Ctrl, KIT(V559D, V654A) (kinases [7]; KIT(V559D, V654A)) | % Ctrl, KIT(D816V) (kinases [8]; KIT(D816V)) | % Ctrl, ABL1(F317I)-nonphosphorylated (kinases [9]; ABL1(F317I)-nonphosphorylated) | % Ctrl, ABL1(F317I)-phosphorylated (kinases [9]; ABL1(F317I)-phosphorylated) | % Ctrl, EGFR(L858R) (kinases [10]; EGFR(L858R)) | % Ctrl, EGFR(E746-A750del) (kinases [11]; EGFR(E746-A750del)) | Structure (SMILES) | other results
2.8 % Ctrl | 11 % Ctrl | 4.3 % Ctrl | 0.75 % Ctrl | 15 % Ctrl | 0.05 % Ctrl | 92 % Ctrl | 58 % Ctrl | 8 % Ctrl | 20 % Ctrl | 20 % Ctrl | 39 % Ctrl | 100 % Ctrl | 93 % Ctrl | Cc1cc2c([nH]1)/C=C1\C(=O)Nc3ccc(cc31)OCCOCCN(C)C2=O [Ex.91, [16a(17)Z]-2,5-dimethyl-6,7,9,10-tetrahydro-1H-12,14-(ethanediylidene)dipyrrolo[3,2-i:3′,4′-l][1,4,7]dioxazacyclopentadecine-4,16(5H,15H)-dione] | –
57 % Ctrl | 42 % Ctrl | 83 % Ctrl | 60 % Ctrl | 51 % Ctrl | 1.7 % Ctrl | 97 % Ctrl | 48 % Ctrl | 100 % Ctrl | 84 % Ctrl | 100 % Ctrl | 55 % Ctrl | 88 % Ctrl | 86 % Ctrl | Cc1cc2c([nH]1)/C=C1\C(=O)Nc3ccc(cc31)-c1c(noc1C)COCCN(C)C2=O [Ex. 128, [3a(4)Z]-6,9,16-trimethyl-1,11-dihydro-2H,13H-1,17-(ethanediylidene)[1,4]oxazolo[4,3-m]dipyrrolo[3,2-f:3′,4′-i][1,4]oxazacyclopentadecine-3,8(5H,9H)-dione] | –
1.7 % Ctrl | 0.75 % Ctrl | 0 % Ctrl | 0 % Ctrl | 0.1 % Ctrl | 0 % Ctrl | 86 % Ctrl | 0.15 % Ctrl | 0.4 % Ctrl | 0.3 % Ctrl | 0 % Ctrl | 0.3 % Ctrl | 31 % Ctrl | 3.9 % Ctrl | Cc1cc2c([nH]1)/C=C1\C(=O)Nc3ccc(cc31)-c1cnn(C)c1CN(C)CCN(C)C2=O [Ex. 126, [3a(4)Z]-6,9,12,14-tetramethyl-9,10,11,12,13,14-hexahydro-1,17-(ethanediylidene)pyrazolo[4,3-m]dipyrrolo[3,2-f:3′,4′-i][1,4]diazacyclopentadecine-3,8(2H,5H)-dione] | –
– | – | – | – | – | – | – | – | – | – | – | – | – | – | Cc1nn(C)c2c1-c1ccc3c(c1)/C(=C/c1[nH]ccc1C(=O)N(C)CCCO2)C(=O)N3 [Ex. 150, [3a(4)Z]-9,14,16-trimethyl-10,11,13,14-tetrahydro-2H-1,17-(ethanediylidene)pyrazolo[4,3-m]dipyrrolo[3,2-f:3′,4′-i][1,4]oxazacyclopentadecine-3,8(5H,9H)-dione] | % Ctrl, ABL1(Q252H)-nonphosphorylated (kinases [1]; target ABL1(Q252H)-nonphosphorylated): 93 % Ctrl; % Ctrl, ABL1(Q252H)-phosphorylated (kinases [1]; target ABL1(Q252H)-phosphorylated): 100 % Ctrl; % Ctrl, RET (kinases [2]; target RET): 93 % Ctrl; % Ctrl, ABL1-nonphosphorylated (kinases [3]; target ABL1-nonphosphorylated): 82 % Ctrl; % Ctrl, ABL1-phosphorylated (kinases [3]; target ABL1-phosphorylated): 82 % Ctrl; % Ctrl, FLT3(D835V) (kinases [4]; target FLT3(D835V)): 13 % Ctrl; % Ctrl, EGFR(G719C) (kinases [5]; target EGFR(G719C)): 92 % Ctrl; % Ctrl, EGFR(L858R, T790M) (kinases [6]; target EGFR(L858R, T790M)): 83 % Ctrl; % Ctrl, KIT(V559D, V654A) (kinases [7]; target KIT(V559D, V654A)): 100 % Ctrl; % Ctrl, KIT(D816V) (kinases [8]; target KIT(D816V)): 89 % Ctrl; % Ctrl, ABL1(F317I)-nonphosphorylated (kinases [9]; target ABL1(F317I)-nonphosphorylated): 95 % Ctrl; % Ctrl, ABL1(F317I)-phosphorylated (kinases [9]; target ABL1(F317I)-phosphorylated): 88 % Ctrl; % Ctrl, EGFR(L858R) (kinases [10]; target EGFR(L858R)): 77 % Ctrl; % Ctrl, EGFR(E746-A750del) (kinases [11]; target EGFR(E746-A750del)): 98 % Ctrl
